Data from PubChem BioAssay AID204 (DTP/NCI, 2004).
Values joined by “and” are separate entries in the source; they are usually repeats but may differ in a detail not shown here. Equal entries are not always repeated. Toxic doses and inconclusive results are not listed.

Tested on: BDF1 mice, P288 methotrexate-resistant leukemia, survival T/C
Experiment: NCI In Vivo Anticancer Drug Screen. Data for tumor model P288 Lymphocytic Leukemia resistant to methotrexate; NSC 740 (intraperitoneal) in B6D2F1 (BDF1) mice
Conditions: endpoint: median survival time, schedule: Q01DX010 (ip), vehicle: saline, higher = longer survival
Experimental: The antitumor activity of compounds was measured in mice bearing transplantable tumors. Survival or tumor size were measured and the results are expressed as the measurement made in the treated group (T) divided by the measurement made in the vehicle treated control group (C). The tumor model used in this assay is P288 Lymphocytic Leukemia resistant to methotrexate; NSC 740 (intraperitoneal) in B6D2F1 (BDF1) mice

## CC[C@]1(O)C[C@H]2CN(CCc3c([nH]c4ccccc34)[C@@](C(=O)OC)(c3cc4c(cc3OC)N(C=O)[C@H]3[C@@](O)(C(=O)OC)[C@H](OC(C)=O)[C@]5(CC)C=CCN6CC[C@]43[C@@H]65)C2)C1
dose: 0.03 mg/kg/injection
  T/C: 121 % of control and 123 % of control
dose: 0.06 mg/kg/injection
  T/C: 157 % of control
dose: 0.12 mg/kg/injection
  T/C: 161 % of control and 162 % of control
dose: 0.25 mg/kg/injection
  T/C: 90 % of control

## CSc1ncnc2nc[nH]c12
dose: 3.13 mg/kg/injection
  T/C: 91 % of control and 100 % of control
dose: 6.25 mg/kg/injection
  T/C: 91 % of control and 96 % of control
dose: 50.0 mg/kg/injection
  T/C: 90 % of control

## CCOC(=O)c1[nH]c2ccccc2c1CN(CCCl)CCCl
dose: 10.0 mg/kg/injection
  T/C: 96 % of control
dose: 20.0 mg/kg/injection
  T/C: 111 % of control

## O=c1cn[nH]c(=O)[nH]1
dose: 62.5 mg/kg/injection
  T/C: 90 % of control and 110 % of control
dose: 125.0 mg/kg/injection
  T/C: 105 % of control and 110 % of control
dose: 250.0 mg/kg/injection
  T/C: 105 % of control and 120 % of control
dose: 500.0 mg/kg/injection
  T/C: 110 % of control and 120 % of control

## CS(=O)(=O)OCCCl
dose: 18.8 mg/kg/injection
  T/C: 94 % of control
dose: 75.0 mg/kg/injection
  T/C: 90 % of control and 110 % of control
dose: 150.0 mg/kg/injection
  T/C: 118 % of control and 121 % of control

## CC(=O)Nc1ccc2nc3ccc(NC(C)=O)cc3[n+](-c3ccccc3)c2c1
dose: 25.0 mg/kg/injection
  T/C: 122 % of control
dose: 50.0 mg/kg/injection
  T/C: 110 % of control
dose: 100.0 mg/kg/injection
  T/C: 106 % of control
dose: 200.0 mg/kg/injection
  T/C: 100 % of control and 113 % of control

## CS(=O)(=O)OCC(O)C(O)COS(C)(=O)=O (stereo not drawn)
dose: 200.0 mg/kg/injection
  T/C: 86 % of control
dose: 400.0 mg/kg/injection
  T/C: 93 % of control
dose: 800.0 mg/kg/injection
  T/C: 100 % of control

## COS(C)(=O)=O
dose: 50.0 mg/kg/injection
  T/C: 90 % of control

## CN(C)CC(=O)c1ccc(O)c(O)c1
dose: 200.0 mg/kg/injection
  T/C: 110 % of control and 113 % of control
dose: 300.0 mg/kg/injection
  T/C: 120 % of control and 122 % of control
dose: 450.0 mg/kg/injection
  T/C: 115 % of control and 118 % of control
dose: 675.0 mg/kg/injection
  T/C: 122 % of control

## Oc1cc(CN(CCCl)CCCl)c(O)cc1CN(CCCl)CCCl
dose: 0.63 mg/kg/injection
  T/C: 104 % of control and 115 % of control
dose: 1.25 mg/kg/injection
  T/C: 121 % of control
dose: 5.0 mg/kg/injection
  T/C: 115 % of control

## C=CC(CN1CC1)OC(C)=O (stereo not drawn)
dose: 2.0 mg/kg/injection
  T/C: 90 % of control and 95 % of control
dose: 4.0 mg/kg/injection
  T/C: 100 % of control and 118 % of control
dose: 16.0 mg/kg/injection
  T/C: 95 % of control and 100 % of control

## O=C(O)CCCc1ccc(N(CCCl)CCCl)cc1
dose: 3.13 mg/kg/injection
  T/C: 90 % of control and 95 % of control
dose: 6.25 mg/kg/injection
  T/C: 91 % of control and 100 % of control
dose: 12.5 mg/kg/injection
  T/C: 115 % of control

## O=C(Nc1ccc(NC(=O)Nc2cccc(C3=NCCN3)c2)cc1)Nc1cccc(C2=NCCN2)c1
dose: 60.0 mg/kg/injection
  T/C: 200 % of control and 225 % of control
dose: 120.0 mg/kg/injection
  T/C: 250 % of control and 322 % of control
dose: 240.0 mg/kg/injection
  T/C: 183 % of control and 235 % of control
dose: 480.0 mg/kg/injection
  T/C: 100 % of control and 120 % of control

## CN(N=O)C(=O)NC(C=O)C(O)C(O)C(O)CO (stereo not drawn)
dose: 12.5 mg/kg/injection
  T/C: 100 % of control
dose: 25.0 mg/kg/injection
  T/C: 115 % of control
dose: 100.0 mg/kg/injection
  T/C: 105 % of control

## O=C(Nc1ccc(C2=NCCN2)cc1)c1ccc(C(=O)Nc2ccc(C3=NCCN3)cc2)c([N+](=O)[O-])c1
dose: 6.0 mg/kg/injection
  T/C: 150 % of control
dose: 8.0 mg/kg/injection
  T/C: 160 % of control and 172 % of control
dose: 12.0 mg/kg/injection
  T/C: 238 % of control and 285 % of control
dose: 18.0 mg/kg/injection
  T/C: 161 % of control and 165 % of control
